Values after ≈ are worked out from the molar mass of the structure shown.

One series relates to Staphylococcus aureus. The series is described as follows: Antibacterial activity against Staphylococcus aureus. To be noted: Staphylococcus aureus; read-out: MIC. It is filed as functional.
Series [1] is described as follows: Selectivity ratio of CC50 for human A549 cells to MIC for Staphylococcus aureus. It is filed as toxicity.
Another series concerns A549. The series is described as follows: Cytotoxicity against human A549 cells. It counts as toxicity, cell-based. To be noted: a549.

In general, MIC refers to the smallest concentration in the dilution series that meets the test's criterion for growth inhibition. In general, CC50 refers to the concentration giving 50% cytotoxicity. The low end stands for harm at low concentration, the high end for better tolerance by the cells. On to `Cc1cc(Cl)cc2sc(N(CCCn3ccnc3)C(=O)C3CCCC3)nc12`, for which the minimal inhibitory concentration (MIC) in the series on Staphylococcus aureus amounted to 1.7 µM (≈ 0.685 µg/mL). Besides, the selectivity ratio in series [1] amounted to 34. In the series on A549, this compound came in with a CC50 of 59.7 µM.

The values above are taken from ChEMBL document CHEMBL5257105, “Identification and structure-activity relationships for a series of N, N-disubstituted 2-aminobenzothiazoles as potent inhibitors of S. aureus” (Bioorg Med Chem Lett, 2023).
